Measured values taken from PubChem BioAssay (NCI).
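Cultured in 96-well plates, cells were exposed to test compound for 48 hours across five concentrations. The concentration for full growth arrest is given as TGI.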

How the values were obtained:
Assay in all cases: NCI-60 cell line screen, 48 h
786-0 renal = test system: 786-0 renal
A498 renal = test system: A498 renal
A549 NSCLC = test system: A549 NSCLC
ACHN renal = test system: ACHN renal
CAKI-1 renal = test system: CAKI-1 renal
CCRF-CEM leukemia = test system: CCRF-CEM leukemia
COLO 205 colon = test system: COLO 205 colon
DU-145 prostate = test system: DU-145 prostate
EKVX NSCLC = test system: EKVX NSCLC
HCC-2998 colon = test system: HCC-2998 colon
HCT-116 colon = test system: HCT-116 colon
HCT-15 colon = test system: HCT-15 colon
HL-60(TB) leukemia = test system: HL-60(TB) leukemia
HOP-62 NSCLC = test system: HOP-62 NSCLC
HOP-92 NSCLC = test system: HOP-92 NSCLC
HS 578T breast = test system: HS 578T breast
HT29 colon = test system: HT29 colon
IGROV1 ovarian = test system: IGROV1 ovarian
K-562 leukemia = test system: K-562 leukemia
KM12 colon = test system: KM12 colon
LOX IMVI melanoma = test system: LOX IMVI melanoma
M14 melanoma = test system: M14 melanoma
MALME-3M melanoma = test system: MALME-3M melanoma
MCF7 breast = test system: MCF7 breast
MDA-MB-231 breast = test system: MDA-MB-231 breast
MDA-MB-435 = test system: MDA-MB-435
MDA-N = test system: MDA-N
MOLT-4 leukemia = test system: MOLT-4 leukemia
NCI-H226 lung = test system: NCI-H226 lung
NCI-H23 lung = test system: NCI-H23 lung
NCI-H460 lung = test system: NCI-H460 lung
NCI-H522 lung = test system: NCI-H522 lung
NCI/ADR-RES ovarian = test system: NCI/ADR-RES ovarian
OVCAR-3 ovarian = test system: OVCAR-3 ovarian
OVCAR-4 ovarian = test system: OVCAR-4 ovarian
OVCAR-5 ovarian = test system: OVCAR-5 ovarian
OVCAR-8 ovarian = test system: OVCAR-8 ovarian
PC-3 prostate = test system: PC-3 prostate
RPMI-8226 leukemia = test system: RPMI-8226 leukemia
RXF 393 renal = test system: RXF 393 renal
SF-268 CNS = test system: SF-268 CNS
SF-295 CNS = test system: SF-295 CNS
SF-539 CNS = test system: SF-539 CNS
SK-MEL-2 melanoma = test system: SK-MEL-2 melanoma
SK-MEL-28 melanoma = test system: SK-MEL-28 melanoma
SK-MEL-5 melanoma = test system: SK-MEL-5 melanoma
SK-OV-3 ovarian = test system: SK-OV-3 ovarian
SN12C renal = test system: SN12C renal
SNB-19 CNS = test system: SNB-19 CNS
SNB-75 CNS = test system: SNB-75 CNS
SW-620 colon = test system: SW-620 colon
T-47D breast = test system: T-47D breast
TK-10 renal = test system: TK-10 renal
U251 CNS = test system: U251 CNS
UACC-257 melanoma = test system: UACC-257 melanoma
UACC-62 melanoma = test system: UACC-62 melanoma
UO-31 renal = test system: UO-31 renal
SR leukemia = test system: SR leukemia

COc1ccc(C2C3=C(COC3=O)Oc3cc4c(cc32)OCO4)cc1OC (stereo not given)
TGI (786-0 renal): > 100 µM
TGI (A498 renal): 8.18 µM
TGI (A549 NSCLC): > 100 µM
TGI (ACHN renal): > 100 µM
TGI (CAKI-1 renal): > 100 µM
TGI (CCRF-CEM leukemia): > 32.4 µM
TGI (COLO 205 colon): 18.1 µM
TGI (DU-145 prostate): > 67.2 µM
TGI (EKVX NSCLC): > 38 µM
TGI (HCC-2998 colon): 4.85 µM
TGI (HCT-116 colon): > 86.1 µM
TGI (HCT-15 colon): > 100 µM
TGI (HL-60(TB) leukemia): 0.804 µM
TGI (HOP-62 NSCLC): > 96.9 µM
TGI (HOP-92 NSCLC): > 100 µM
TGI (HS 578T breast): 6.14 µM
TGI (HT29 colon): 13 µM
TGI (IGROV1 ovarian): > 100 µM
TGI (K-562 leukemia): > 26.8 µM
TGI (KM12 colon): > 71.7 µM
TGI (LOX IMVI melanoma): > 100 µM
TGI (M14 melanoma): > 100 µM
TGI (MALME-3M melanoma): > 100 µM
TGI (MCF7 breast): > 100 µM
TGI (MDA-MB-231 breast): > 100 µM
TGI (MDA-MB-435): 0.751 µM
TGI (MDA-N): 0.639 µM
TGI (MOLT-4 leukemia): > 29.9 µM
TGI (NCI-H226 lung): > 100 µM
TGI (NCI-H23 lung): > 100 µM
TGI (NCI-H460 lung): > 100 µM
TGI (NCI-H522 lung): 2.19 µM
TGI (NCI/ADR-RES ovarian): 7.7 µM
TGI (OVCAR-3 ovarian): 6.05 µM
TGI (OVCAR-4 ovarian): > 100 µM
TGI (OVCAR-5 ovarian): > 100 µM
TGI (OVCAR-8 ovarian): > 43.3 µM
TGI (PC-3 prostate): > 31.3 µM
TGI (RPMI-8226 leukemia): > 23.5 µM
TGI (RXF 393 renal): 5.7 µM
TGI (SF-268 CNS): > 100 µM
TGI (SF-295 CNS): 24 µM
TGI (SF-539 CNS): 2.31 µM
TGI (SK-MEL-2 melanoma): > 100 µM
TGI (SK-MEL-28 melanoma): > 100 µM
TGI (SK-MEL-5 melanoma): > 100 µM
TGI (SK-OV-3 ovarian): 18.1 µM
TGI (SN12C renal): > 100 µM
TGI (SNB-19 CNS): > 100 µM
TGI (SNB-75 CNS): > 100 µM
TGI (SW-620 colon): > 100 µM
TGI (T-47D breast): > 100 µM
TGI (TK-10 renal): > 100 µM
TGI (U251 CNS): > 100 µM
TGI (UACC-257 melanoma): > 100 µM
TGI (UACC-62 melanoma): > 100 µM
TGI (UO-31 renal): > 100 µM

O=C1OC2(CCCCC2)C(Oc2ccc(Cl)cc2)=C1F
TGI (786-0 renal): > 100 µM
TGI (A498 renal): > 100 µM
TGI (A549 NSCLC): > 100 µM
TGI (ACHN renal): > 100 µM
TGI (CAKI-1 renal): > 100 µM
TGI (CCRF-CEM leukemia): 86.1 µM
TGI (COLO 205 colon): > 100 µM
TGI (DU-145 prostate): > 100 µM
TGI (EKVX NSCLC): > 100 µM
TGI (HCC-2998 colon): 57 µM
TGI (HCT-116 colon): > 100 µM
TGI (HL-60(TB) leukemia): 62.8 µM
TGI (HOP-62 NSCLC): > 100 µM
TGI (HOP-92 NSCLC): 82.5 µM
TGI (HS 578T breast): > 100 µM
TGI (HT29 colon): > 100 µM
TGI (IGROV1 ovarian): > 100 µM
TGI (K-562 leukemia): > 100 µM
TGI (KM12 colon): > 100 µM
TGI (LOX IMVI melanoma): > 100 µM
TGI (M14 melanoma): > 100 µM
TGI (MALME-3M melanoma): 51.6 µM
TGI (MCF7 breast): > 100 µM
TGI (MDA-MB-231 breast): > 100 µM
TGI (MDA-MB-435): > 100 µM
TGI (MDA-N): > 100 µM
TGI (MOLT-4 leukemia): 48.5 µM
TGI (NCI-H460 lung): > 100 µM
TGI (NCI-H522 lung): 95.9 µM
TGI (OVCAR-3 ovarian): > 100 µM
TGI (OVCAR-5 ovarian): > 100 µM
TGI (OVCAR-8 ovarian): > 100 µM
TGI (PC-3 prostate): > 100 µM
TGI (RPMI-8226 leukemia): > 100 µM
TGI (RXF 393 renal): > 100 µM
TGI (SF-268 CNS): > 100 µM
TGI (SF-295 CNS): > 100 µM
TGI (SF-539 CNS): > 100 µM
TGI (SK-MEL-2 melanoma): 61.8 µM
TGI (SK-MEL-28 melanoma): 81.5 µM
TGI (SK-MEL-5 melanoma): 33.3 µM
TGI (SK-OV-3 ovarian): > 100 µM
TGI (SN12C renal): > 100 µM
TGI (SNB-19 CNS): > 100 µM
TGI (SNB-75 CNS): > 100 µM
TGI (SR leukemia): > 100 µM
TGI (SW-620 colon): > 100 µM
TGI (T-47D breast): > 100 µM
TGI (TK-10 renal): > 100 µM
TGI (U251 CNS): > 100 µM
TGI (UACC-257 melanoma): 66.8 µM
TGI (UACC-62 melanoma): > 100 µM
TGI (UO-31 renal): > 100 µM
